Data from US9579329B2, “Use of estetrol as emergency contraceptive” (Estetra S.P.R.L., priority 2011, dated 2017).
Where two headings read alike, the source gives them in different places.

Legend:
[1] = test system: ovulation in four-day cyclic rats; assay: Anti-ovulatory effect in four-day cyclic rats, oral twice daily for four days, ova per oviduct counted; type: in vivo, rat; conditions: for ED50: Rattus norvegicus, po, 96 h, four-day cyclic rats; for rats with ovulation inhibited: Days 1-4, 8 rats per group
Protocol: Vaginal smears from female rats were obtained daily for two weeks prior to the start of treatment to identify four-day cycling rats. All treatments were administered orally twice daily at approximately 6:30 am and 4:30 pm for four consecutive days (Days 1-4), starting on the day of estrus. One day after the final dose (Day 5), the rats were euthanized by CO2 asphyxiation at approximately 1 pm, and the number of ova per oviduct was counted by visualization under a dissecting microscope and recorded. In one study, animals (8 per group) were treated with E4 (0.03; 0.1; 0.3; 1.0 or 3.0 mg/kg) or ethinylestradiol (EE) (0.0003; 0.001; 0.003, 0.01 or 0.03 mg/kg). The control group was given the vehicle only. In another study, the antiovulatory activity of E4 was evaluated relative to that of estradiol (E2). Animals (8 per group) were treated with E4, E2 or vehicle (control group).

[2] = test system: ovulation and pregnancy in fertile female rabbits; assay: Prevention of pregnancy in rabbits, twice daily dosing for 14 days starting four days before mating; type: in vivo, rabbit
Protocol: Eighteen proven fertile female rabbits, 3 per group were dosed twice daily at approximately 12 hour intervals for 14 days starting four days before mating: Group 1: vehicle control (ASV: 0.9% sodium chloride, 0.4% polysorbate 80, 0.5% carboxymethylcellulose and 0.9% benzyl alcohol in distilled or deionised water, 1 ml/kg), Group 2: 0.01 mg/kg E4 in ASV, 1 ml/kg, Group 3: 0.03 mg/kg E4 in ASV, 1 ml/kg, Group 4: 0.1 mg/kg E4 in ASV, 1 ml/kg, Group 5: 0.3 mg/kg E4 in ASV, 1 ml/kg and Group 6: 1.0 mg/kg E4 in ASV, 1 ml/kg. Doses were determined by body weights taken the first day of dosing and were adjusted according to weights obtained one week later. Each female rabbit was bred with two proven fertile male rabbits after four days of dosing. The females were necropsied ten days later and the number of pregnancies were determined.

[3] = test system: mated female Wistar rats; assay: Effects of E4 on the pregnancy of the Wistar rat, oral gavage Day 6 to 17 of gestation; type: in vivo; conditions: for females observed to be hunched towards the end of gestation: seven rats per group
Protocol: In one study, groups of seven mated female rats were given E4 orally, by gavage, at dose levels of 30, 60 or 90 mg/kg/day from Day 6 to 17 of gestation inclusive. A similar group of seven rats was given the vehicle, 0.5% w/v carboxymethylcellulose, over the same period to act as controls. On Day 20 of gestation, the females were examined.
In another study, using the same protocol as the study above, groups of seven mated female rats were given E4 at dose levels of 0.1, 0.3, 1, 3 and 10 mg/kg/day or vehicle (controls).

[4] = test system: adult female cynomolgus monkeys; assay: Maximum tolerated dose (MTD) study in adult female cynomolgus monkeys; type: in vivo
Protocol: A maximum tolerated dose (MTD) study was performed in adult female cynomolgus monkeys.
Three control animals were treated orally with vehicle, and four other animals were treated orally with E4 as a suspension in vehicle at single increasing doses of 1, 10, 100 or 1000 mg/kg on days 1, 3, 6 and 14 respectively.

[5] = test system: healthy postmenopausal women; assay: Safety and tolerability of a single rising oral dose in healthy postmenopausal women; type: in vivo, human; conditions: for safety and tolerability after single administration: dose up to 100 mg, humans
Protocol: (§1) In the present example the safety, tolerability, pharmacokinetics and pharmacodynamics of a single escalating dose of E4 (0.1, 1, 10 and 100 mg) was evaluated in healthy postmenopausal women.
(§2) A double-blind, randomized, placebo-controlled, single rising dose study (0.1, 1, 10 and 100 mg of E4) was performed in healthy postmenopausal women. 32 healthy postmenopausal female volunteers between 53 and 69 years of age were enrolled. Menopause was defined as ≧12 months amenorrhea or 6 months amenorrhea with serum FSH levels≧40 IU/l and serum E2<73 pmol/l. […] A total of 8 subjects were assigned to each dose group; six subjects received active treatment and two subjects received placebo.

[6] = Pharmacokinetics of a single oral dose in healthy postmenopausal women; type: in vivo, human; conditions: for half-life: female, human, plasma, po, postmenopausal women
Protocol: as §1, §2
Plasma concentration profiles could not be determined in subjects of the 0.1 mg group.

[7] = test system: plasma LH levels; assay: Pharmacodynamics: plasma LH levels after a single oral dose in postmenopausal women; type: in vivo, human
Protocol: as §1, §2
The maximum mean suppression was 48% at 4 hours after dosing. A second LH trough of 45% is seen at 12 hours after dosing, synchronous with the mean E4 levels.

[8] = test system: FSH levels; assay: Pharmacodynamics: FSH levels after a single oral dose in postmenopausal women; type: in vivo, human; conditions: 100 mg dose group
Protocol: as §1, §2

[9] = test system: estrogen-sensitive parameters related to hepatic and bone metabolism; assay: Pharmacodynamics: estrogen-sensitive hepatic and bone metabolism parameters and endometrial stimulation in postmenopausal women; type: in vivo, human; conditions: single oral dose
Protocol: as §1, §2
Some fast reacting, estrogen-sensitive parameters related to hepatic and bone metabolism were determined in the 100-mg dose group only. […] Interpretation of the pharmacodynamic data must be made with care taking into consideration the small number of subjects and the single dose administration.

[10] = another study, E4 vs E2, p.o., read-out: antiovulatory ED50
[11] = 0.01 mg/kg twice daily, one female failed to breed
[12] = 0.03 mg/kg twice daily, 3 animals per group
[13] = 1.0 mg/kg twice daily, 3 animals per group
[14] = 30, 60 or 90 mg/kg/day oral gavage, Day 6 to 17 of gestation
[15] = all dose groups 30, 60, 90 mg/kg/day
[16] = single increasing oral doses 1-1000 mg/kg

Molecule `C[C@]12CC[C@@H]3c4ccc(O)cc4CC[C@H]3[C@@H]1CC[C@@H]2O` [E2, estradiol, reference compound] has an ED50 [1, 10] of 0.03 to 0.1 mg/kg.
In the case of `C[C@]12CC[C@@H]3c4ccc(O)cc4CC[C@H]3[C@@H]1[C@@H](O)[C@@H](O)[C@@H]2O` [E4, 1,3,5(10)-estratrien-3, 15α, 16α, 17β-tetrol], the “rats with ovulation inhibited” value ([1]; 0.03 mg/kg p.o. twice daily) is reported as “did not inhibit ovulation”, the “rats with ovulation inhibited” value ([1]; 0.1 mg/kg p.o. twice daily) is reported as 2 of 8 and the “rats with ovulation inhibited” value ([1]; 0.3 mg/kg p.o. twice daily) is reported as 5 of 8. The “rats with ovulation inhibited” value ([1]; 1.0 mg/kg p.o. twice daily) was 7 of 8, the “rats with ovulation inhibited” value ([1]; 3.0 mg/kg p.o. twice daily) was 8 of 8 and the ED50 [1, 10] was 0.204 mg/kg. For the same molecule, the “dosages that caused complete prevention of pregnancy” value [2] was > 0.03 mg/kg b.i.d, the “N corpora lutea, total number” value [2, 11] was 22 and the “N pregnancies, total number” value [2, 11] was 22. For the same molecule, the “N corpora lutea, total number” value [2, 12] was 22, the “N pregnancies, total number” value [2, 12] was 21 and the “N corpora lutea, total number” value ([2]; 0.1 mg/kg twice daily, 3 animals per group) was 20. The “N corpora lutea, total number” value ([2]; 0.3 mg/kg twice daily, 3 animals per group) was 20, the “N corpora lutea, total number” value [2, 13] was 3 and the “N pregnancies, total number” value [2, 13] was 0. For the same molecule, the “oral doses that induce inhibition of ovulation” value ([2]; oral) was > 0.3 mg/kg b.i.d, the “females observed to be hunched towards the end of gestation” value ([3]; 3 mg/kg/day) was “one female” and the “mean body weight during treatment period” value ([3]; 10 mg/kg/day) was “overall loss in mean body weight”. The mean food intake ([3]; 10 mg/kg/day) was “reduced mean food intake”, the “females observed to be hunched towards the end of gestation” value ([3]; 10 mg/kg/day) was “Three females” and the “mean body weight gains over treatment period” value ([3]; 0.1, 0.3, 1 and 3 mg/kg/day) was “less than the controls”. For the same molecule, the “mean gravid uterus weight” value ([3]; 0.3, 1 and 3 mg/kg/day) was “reduction in mean gravid uterus weight”, the “mean food intake over treatment period” value ([3]; 1 and 3 mg/kg/day) was “slightly lower than the control” and the “clinical observations or necropsy findings related to treatment” value [3, 14] was “no relevant unexpected clinical observations or necropsy findings”. For the same molecule, the deaths [3, 14] was “no deaths”, the “group mean body weight over treatment period” value [3, 15] was “Group mean body weight loss” and the “mean food intake over treatment period” value [3, 15] was “marked reduction in mean food intake”. The deaths ([3]; another study, 0.1, 0.3, 1, 3 and 10 mg/kg/day) was “no deaths”, the maternal toxicity ([3]; dose level below 3 mg/kg/day) was “only slight maternal toxicity” and the “animals with decreased levels of inorganic phosphorus” value (“animals with decreased levels” below) ([4]; 1 mg/kg, the day after dosing) was 3 of 4. The adverse clinical sign ([4]; 1000 mg/kg oral, approximately 12 h after dosing) was “emesis in one E4-treated animal”, the “animals with decreased levels” value ([4]; after the 100 mg/kg dose) was “all E4-treated animals” and the “animals with decreased levels” value ([4]; after the 1000 mg/kg dose) was “all E4-treated animals”. For the same molecule, the “tolerability of single oral treatment” value ([4]; doses up to 1000 mg/kg) was “well tolerated”, the “effects on body weight or haematological parameters” value [4, 16] was “No effects” and the gross necropsy [4, 16] was “did not reveal any unusual findings”. For the same molecule, the “liver parameters (AST, ALT)” value [4, 16] was “no apparent test item- or dose-related findings”, the “Somnolence, E = number of adverse events” value ([5]; 0.1 mg single oral dose, N = 6) was 1 and the “Somnolence, n = number of subjects with adverse events” value (“Somnolence, n = number of subjects” for short) ([5]; 0.1 mg single oral dose, N = 6) was 1. For the same molecule, the “Somnolence, percentage of subjects with adverse events” value (shortened to “Somnolence, percentage of subjects”) ([5]; 0.1 mg single oral dose, N = 6) was 16.7%, the “Somnolence, E = number of adverse events” value ([5]; 1 mg single oral dose, N = 6) was 1 and the “Somnolence, n = number of subjects” value ([5]; 1 mg single oral dose, N = 6) was 1. The “Somnolence, percentage of subjects” value ([5]; 1 mg single oral dose, N = 6) was 16.7%, the “number of AEs” value ([5]; 10 mg group) was “just one AE” and the “Myalgia, E = number of adverse events” value ([5]; 10 mg single oral dose, N = 6) was 1. The “Myalgia, n = number of subjects with adverse events” value ([5]; 10 mg single oral dose, N = 6) was 1, the “Myalgia, percentage of subjects with adverse events” value ([5]; 10 mg single oral dose, N = 6) was 16.7% and the “number and nature of AEs versus placebo” value ([5]; 0.1, 1.0 and 10 mg) was “similar”. For the same molecule, the “number of AEs (all AEs and related AEs)” value ([5]; 100 mg) was “highest”, the “Diarrhoea NOS, E = number of adverse events” value ([5]; 100 mg single oral dose, N = 6) was 2 and the “Diarrhoea NOS, n = number of subjects with adverse events” value ([5]; 100 mg single oral dose, N = 6) was 2. The “Diarrhoea NOS, percentage of subjects with adverse events” value ([5]; 100 mg single oral dose, N = 6) was 33.3%, the “Myalgia, E = number of adverse events” value ([5]; 100 mg single oral dose, N = 6) was 2 and the “Myalgia, n = number of subjects with adverse events” value ([5]; 100 mg single oral dose, N = 6) was 2. The “Myalgia, percentage of subjects with adverse events” value ([5]; 100 mg single oral dose, N = 6) was 33.3%, the “Somnolence, E = number of adverse events” value ([5]; 100 mg single oral dose, N = 6) was 2 and the “Somnolence, n = number of subjects” value ([5]; 100 mg single oral dose, N = 6) was 2. For the same molecule, the “Somnolence, percentage of subjects” value ([5]; 100 mg single oral dose, N = 6) was 33.3%, the “safety and tolerability after single administration” value [5] was “In conclusion, the results of this study showed that E4 after single administration at a dose up to 100 mg is safe and well tolerated” and the “safety and tolerability after single administration” value ([5]; listed as estetrol) was “safe and well tolerated”. The notable adverse event ([5]; one subject of the 100 mg group, not serious, mild, probably related) was “allergic reaction (urticaria)”, the “severe or serious adverse events” value ([5]; single doses 0.1, 1, 10 and 100 mg) was “No severe or serious adverse events” and the “changes in ECGs, laboratory tests or vital signs” value ([5]; single doses 0.1-100 mg) was “no notable changes”. The oral bioabsorption ([6]; dose range tested) was “high and dose-proportional”, the half-life ([6]; single oral dose, read-out: terminal half life (converted)) was 28 h and the half-life ([6]; single oral dose, read-out: terminal half life, ranges) was 18 to 60 h. For the same molecule, the Cmax dose proportionality ([6]; range from 1 to 100 mg oral) was “proportional”, the “AUC0-∞ dose proportionality” value ([6]; range from 10 to 100 mg oral) was “proportional to the oral dose” and the absorption ([6]; single oral dose) was “extremely fast”. For the same molecule, the “terminal half life and fractional clearance, effect of dose level” value ([6]; single oral dose) was “not affected by dose level”, the “inter-subject variability of pharmacokinetic data” value ([6]; single oral dose, 1-100 mg) was “very low” and the “maximum mean suppression of LH” value ([7]; 4 hours after dosing, 100 mg group shown in FIG. 2) was 48%. The “second LH trough” value ([7]; 12 hours after dosing, 100 mg group shown in FIG. 2) was 45%, the “inhibition of plasma LH levels” value ([7]; up to 48 hours after dosing) was “clear dose-dependent inhibition” and the “maximum suppression of FSH” value ([8]; 48 hrs after dosing) was 41%. The “inhibition of FSH levels” value ([8]; up to 168 hours (1 week) after dosing) was “profound and sustained inhibition” and the “endometrial stimulation (withdrawal bleeding after progestogen post treatment)” value [9] was “No significant endometrial stimulation”.
Molecule `C#C[C@]1(O)CC[C@H]2[C@@H]3CCc4cc(O)ccc4[C@H]3CC[C@@]21C` [EE, ethinylestradiol, reference compound] has an ED50 ([1]; study E4 vs EE, p.o. twice daily, read-out: calculated antiovulatory ED50) of 0.01 mg/kg.
